Laboratory results taken from patent US4734416A, “Pharmaceutically useful carbostyril derivatives” (Otsuka Pharmaceutical Co., Ltd., priority 1978, dated 1988).
Counter-ions that a name gives are not always drawn.

Tests used:
[1] = biological target: T1, enucleated ileum of a guinea pig (Cavia porcellus, UniProt P31389); test: Antihistamine activity test in vitro (enucleated guinea pig ileum, histamine retraction, pA2 by Van Rossam method); conditions: 10^-6 g/ml test compound, 5 minutes before histamine, 36° C.
T1 construct: the tissue of ileum is cut to a length of 2.5 to 3.0 cm and suspended in an organ bath; from tissue; host or cells: isolated ileum from the ileocecal region of male guinea pig
Protocol: As to the test method for determining antihistamine activity of a compound in vitro, a method of using an enucleated ileum of a guinea pig is generally accepted.
A male guinea pig having 300 to 500 g body weight is killed by blood letting. An ileum having a length of 15 cm being enculeated from the ileocecal region is dipped into Tyrode's solution (which is prepared from […], 0.2 g of KCl, 0.2 g of CaCl2, 1.0 g of glucose, 1.0 g of NaHCO3, 0.065 g of NaHPO4.2H2 O and 0.2135 g of MgCl2.6H2 O to make 1000 ml in total volume by adding water). Then the tissue of ileum is cut to a length of 2.5 to 3.0 cm and suspended in an organ bath filled with 30 ml of Tyrode's solution. The organ bath is kept at a temperature of 36° C. and a mixed gas consisting of 5% of CO2 and 95% of O2 is blown into the bath. 10 Minutes after the blowing, 10^-6 M of histamine is added to the bath to examine the sensitivity of the tissue and a reaction curve (control) with respect to the dosage of histamine is obtained. After the dosage of histamine-reaction curve (control) becomes constant, 10^-6 g/ml of a compound to be tested is added to the bath and further histamine is added 5 minutes later to obtain a dosage-reaction curve. Retraction of the ileum is recorded on a pen-recorder through an isotonic transducer [TD-112S manufactured by Nihon Koden]. Antihistamine activity of the test compound is determined as pA2 value by the "Van Rossam" method [J. M. Van Rossam; Arch. Inst. Pharmacodyn., 143, 299 (1963)] wherein the maximum retraction of ileum caused by histamine shown in the control curve is 100%.

[2] = Halothane anesthesia increasing activity (righting reflex); type: in vivo, mouse (male, ddy-strain); conditions: oral; for Time (minutes) between introduction of anesthesia and waking: 8 mg/kg, 1 hour before 4% Halothane
Protocol: Male mice of ddy-strain having about 20 g body weight are used. One test group consists of 10 mice. An aqueous Gummi Arabicum suspension of test compound (80 mg of a compound to be tested and 1 g of Gummi Arabicum/100 ml of physiological NaCl solution) is administered orally to each mouse at the dosage of 8 mg of test compound/kg body. One hour after the administration, each mouse is placed in a gas respiration chamber (13×13×24 cm) and oxygen gas containing 4% of Halothane [2-bromo-2-chloro-1,1,1-trifluoroethane] is blown into the chamber at the velocity of 2 l/min for 3 minutes. A mouse anaesthetized is taken out from the chamber and the time between the introduction of anesthesia to waking is measured by righting reflex as the index. To mice of the control group, 1% Gummi Arabicum aqueous physiological solution is orally administered at the dosage of 0.1 ml/10 g body. [Reference: M. J. Turnbull and J. W. Watkins: Br. J. Pharmac., 58, 27-35 (1976)]
Same procedures as mentioned in (II)-(A) are employed, except that the amount of test compound to be orally administered is changed in 4 steps at the dosage of 0.5 mg/kg, 1 mg/kg, 2 mg/kg and 4 mg/kg respectively to measure the relationship between the dosage and degree of strength of anesthesia increasing activity.

[3] = Activity for inhibiting fighting behavior of mouse isolated singly for a long period of time; type: in vivo, mouse (male, ddy-strain); conditions: positive if fighting no longer than 5 seconds in a minute, range in parentheses, read-out: ED50 (inhibition of fighting behavior)
Protocol: Individual male mice of ddy-strain having 15 to 20 g of body weight are breeded separately in respective cages for 1 month. One test group consists of 10 pairs of mice. The pairs of mice are selected so that when one mouse is taken into the home cage of another, the two mice fight together continuously for over 30 seconds. ED50 values are calculated by administering the respective test compounds to each test groups of mice. Activity for inhibiting fighting behavior of the test compound is determined as positive in case the administered mice only continue the fighting for no longer than 5 seconds in a minute. When the mice continue the fighting over 5 seconds they are forced to separate for the purpose of reducing the number of injured mice. [Reference: C. Y. Yen, R. L. Stanger and N. Millman: Arch. Int. Pharmacodyn., 123, 179 (1959)]

in vivo = conditions: mouse
Protocol: Mice of ddy-strain having 20-22 g of body weight are used. One test group consists of 10 mice.
Oral administration: Compound to be tested is suspended in 1% Gummi Arabicum physiological NaCl aqueous solution.
Intravenuous administration: Compound to be tested is dissolved in 50% propyleneglycol aqueous solution.

[4] = Hexabarbital sleep increasing activity (righting reflex); type: in vivo, mouse (male, ddy-strain); conditions: oral, Hexabarbital Na 70 mg/kg i.p.
Protocol: Male mice of ddy-strain having 20 to 25 g body weight are starved for 24 hours. One test group consists of 10 mice. An aqueous Gummi Arabicum suspension of test compound (0.05 g of test compound and 1 g of Gummi Arabicum/100 ml of physiological NaCl solution) is administered orally at the dosage mentioned in the Table 4. One hour after the administration 0.7% of Hexabarbitol.Na-salt is intraperitonerally administered at the dosage of 70 mg/kg body weight. The time between the introduction of sleep to waking is measured by righting reflex as the index. [Reference: A. M. Hjort, De E. J. Beer and D. W. Fassett; J. Pharmac., Exptl.

[5] = Analgetic activity (acetic acid writhing); type: in vivo, mouse (male, ddy-strain); conditions: Mus musculus, read-out: ED50 (analgetic activity)
Protocol: Male mice of ddy-strain having 15-23 g of body weight are used. One test group consists of 10 mice. The compound to be tested is administered orally by procedures similar to the method mentioned in (II). Fifty minutes after the administration, 0.1 ml of 0.6% acetic acid aqueous solution/10 g body weight is injected intraperitoneally. In case of the mice administered orally with the reference compound (Haloperidol), the injection is made 110 minutes after the administration. The number of writhings shown after 10 minutes is counted for 10 minutes and the ED50 value of respective compounds is calculated in comparison with the number of writhings shown by control group. [Reference: R. Koster, M. Anderson and E. I. Debeer: Fed. Proc., 18, 412, (1959)]

[6] = 50 min, oral, 50 minutes before acetic acid i.p., range in parentheses

T1 sequence (P31389 whole entry): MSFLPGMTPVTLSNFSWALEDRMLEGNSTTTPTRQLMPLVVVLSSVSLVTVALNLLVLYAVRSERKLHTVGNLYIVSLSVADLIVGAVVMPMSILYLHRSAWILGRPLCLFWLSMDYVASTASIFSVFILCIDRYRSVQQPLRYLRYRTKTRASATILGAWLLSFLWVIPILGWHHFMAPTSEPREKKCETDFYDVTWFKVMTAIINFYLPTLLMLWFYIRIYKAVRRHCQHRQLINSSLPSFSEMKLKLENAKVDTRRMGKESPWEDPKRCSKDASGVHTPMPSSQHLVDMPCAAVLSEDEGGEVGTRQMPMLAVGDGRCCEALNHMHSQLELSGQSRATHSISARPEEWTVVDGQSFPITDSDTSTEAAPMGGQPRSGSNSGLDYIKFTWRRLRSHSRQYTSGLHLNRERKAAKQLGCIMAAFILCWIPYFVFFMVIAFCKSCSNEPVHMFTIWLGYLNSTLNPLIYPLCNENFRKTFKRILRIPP

Compound: O=C1CCc2c(cccc2OCCCN2CCN(c3ccccc3)CC2)N1 [Compound 5, 5-[3-(4-Phenylpiperazinyl)propoxy]-3,4-dihydrocarbostyril dihydrochloride]
- Kb [1]: 1.35 nM
- Anesthesia increasing activity ([2]; 0.5 mg/kg): 5.2 ± 2.1 min
- Anesthesia increasing activity ([2]; 1 mg/kg): 8.5 ± 3.5 min
- Anesthesia increasing activity ([2]; 2 mg/kg): 9.6 ± 4.1 min
- Anesthesia increasing activity ([2]; 4 mg/kg): 12.7 ± 3.9 min
- Time (minutes) between introduction of anesthesia and waking [2]: 16.9 ± 7.9 min
- ED50 [3]: 1.28 mg/kg

Compound: CN1C(=O)CCc2c(OCC(O)CN3CCN(c4ccccc4)CC3)cccc21 (stereo not shown) [Compound 7, 1-Methyl-5-[2-hydroxy-3-(4-phenylpiperazinyl)propoxy]-3,4-dihydrocarbostyril monohydrochloride]
- Kb [1]: 0.132 nM
- Anesthesia increasing activity ([2]; 0.5 mg/kg): 5.3 ± 2.5 min
- Anesthesia increasing activity ([2]; 1 mg/kg): 7.4 ± 3.1 min
- Anesthesia increasing activity ([2]; 2 mg/kg): 9.5 ± 3.8 min
- Anesthesia increasing activity ([2]; 4 mg/kg): 13.7 ± 4.7 min
- Time (minutes) between introduction of anesthesia and waking [2]: 8.9 ± 2.4 min
- LD50 (in vivo; iv, female mice): 432 mg/kg
- LD50 (in vivo; iv, male mice): 424 mg/kg
- LD50 (in vivo; po, female mice): 1650 mg/kg
- LD50 (in vivo; po, male mice): 1600 mg/kg

Compound: CN1C(=O)CCc2c(OCCCN3CCN(c4ccccc4)CC3)cccc21 [Compound 9, 1-Methyl-5-[3-(4-phenylpiperazinyl)propoxy]-3,4-dihydrocarbostyril monohydrochloride]
- Kb [1]: 0.0263 nM
- Time (minutes) between introduction of anesthesia and waking [2]: 9.5 ± 3.2 min
- ED50 [3]: 1.52 mg/kg

Compound: COc1ccccc1N1CCN(CCCOc2ccc3c(c2)NC(=O)CC3)CC1 [Compound 17, 7-{3-[4-(2-Methoxyphenyl)piperazinyl]propoxy}-3,4-dihydrocarbostyril]
- Kb [1]: 0.871 nM
- Time (minutes) between introduction of anesthesia and waking [2]: 13.6 ± 5.2 min
- Sleep time (min.) [Mean ± SD] ([4]; 0.125 mg/kg): 39.51 ± 8.45 min
- Sleep time (min.) [Mean ± SD] ([4]; 0.25 mg/kg): 45.57 ± 10.05 min
- Sleep time (min.) [Mean ± SD] ([4]; 0.5 mg/kg): 51.77 ± 6.60 min
- Sleep time (min.) [Mean ± SD] ([4]; 1.0 mg/kg): 56.92 ± 6.13 min
- ED50 [3]: 0.92 mg/kg
- LD50 (in vivo; iv, female mice): 216 mg/kg
- LD50 (in vivo; iv, male mice): 218 mg/kg
- LD50 (in vivo; po, female mice): 860 mg/kg
- LD50 (in vivo; po, male mice): 898 mg/kg

Compound: O=C1CCc2c(cccc2OCCCN2CCN(C3CCCCC3)CC2)N1 [Compound 30, 5-[3-(4-Cyclohexylpiperazinyl)propoxy]-3,4-dihydrocarbostyril]
- Kb [1]: 44.7 nM
- Time (minutes) between introduction of anesthesia and waking [2]: 7.9 ± 3.7 min

Compound: O=C1CCc2c(cccc2OCCCN2CCCN(c3ccccc3)CC2)N1 [Compound 31, 5-[3-(4-Phenylhomopiperazinyl)propoxy]-3,4-dihydrocarbostyril]
- Kb [1]: 0.263 nM
- Time (minutes) between introduction of anesthesia and waking [2]: 8.2 ± 3.9 min
- ED50 [5, 6]: 1.92 mg/kg
- LD50 (in vivo; iv, female mice): 248 mg/kg
- LD50 (in vivo; iv, male mice): 256 mg/kg
- LD50 (in vivo; po, female mice): 923 mg/kg
- LD50 (in vivo; po, male mice): 870 mg/kg

Compound: CC(=O)OCCN1CCN(CCCOc2ccc3c(c2)NC(=O)CC3)CC1 [Compound 32, 7-{3-[4-(2-Acetyloxyethyl)piperazinyl]propoxy}-3,4-dihydrocarbostyril]
- Kb [1]: 30.2 nM
- Time (minutes) between introduction of anesthesia and waking [2]: 7.9 ± 3.1 min

Compound: O=C1CCc2ccc(OCCCN3CCN(CCO)CC3)cc2N1 [Compound 33, 7-{3-[4-(2-Hydroxyethyl)piperazinyl]propoxy}-3,4-dihydrocarbostyril]
- Kb [1]: 95.5 nM
- Time (minutes) between introduction of anesthesia and waking [2]: 7.4 ± 2.6 min

Compound: CC(=O)N1CCN(CCCOc2ccc3c(c2)NC(=O)CC3)CC1 [Compound 34, 7-[3-(4-Acetylpiperazinyl)propoxy]-3,4-dihydrocarbostyril]
- Kb [1]: 57.5 nM
- Time (minutes) between introduction of anesthesia and waking [2]: 7.8 ± 3.4 min

Compound: O=C1CCc2ccc(OCCCN3CCN(C(=O)c4ccccc4)CC3)cc2N1 [Compound 35, 7-[3-(4-Benzoylpiperazinyl)propoxy]-3,4-dihydrocarbostyril]
- Kb [1]: 2.63 nM
- Time (minutes) between introduction of anesthesia and waking [2]: 8.2 ± 3.7 min

Compound: O=c1ccc2cc(OCCCN3CCN(c4ccccc4)CC3)ccc2[nH]1 [Compound 36, 6-[3-(4-Phenylpiperazinyl)propoxy]carbostyril]
- Kb [1]: 10.2 nM
- Time (minutes) between introduction of anesthesia and waking [2]: 15.3 ± 3.1 min

Compound: O=c1ccc2ccc(OCCCN3CCN(c4ccccc4)CC3)cc2[nH]1 [Compound 37, 7-[3-(4-Phenylpiperazinyl)propoxy]carbostyril]
- Kb [1]: 0.295 nM
- Time (minutes) between introduction of anesthesia and waking [2]: 13.1 ± 6.0 min
- ED50 [3]: 0.78 mg/kg
- ED50 [5, 6]: 1.52 mg/kg

Compound: O=C1CCc2ccc(OCCCN3CCN(c4cccc(Cl)c4)CC3)cc2N1 [Compound 39, 7-{3-[4-(3-Chlorophenyl)piperazinyl]propoxy}-3,4-dihydrocarbostyril]
- Kb [1]: 0.182 nM
- Time (minutes) between introduction of anesthesia and waking [2]: 5.0 ± 2.9 min
- ED50 [3]: 0.96 mg/kg
- LD50 (in vivo; iv, female mice): 293 mg/kg
- LD50 (in vivo; iv, male mice): 310 mg/kg
- LD50 (in vivo; po, female mice): 1100 mg/kg
- LD50 (in vivo; po, male mice): 1210 mg/kg

Compound: CN1C(=O)CN=C(c2ccccc2)c2cc(Cl)ccc21 [Diazepam, reference compound]
- ED50 [3]: 7.29 mg/kg

Compound: O=C(CCCN1CCC(O)(c2ccc(Cl)cc2)CC1)c1ccc(F)cc1 [Haloperidol, reference compound]
- Anesthesia increasing activity ([2]; 0.5 mg/kg): 5.3 ± 2.9 min
- Anesthesia increasing activity ([2]; 1 mg/kg): 5.1 ± 2.5 min
- Anesthesia increasing activity ([2]; 2 mg/kg): 9.3 ± 3.1 min
- Anesthesia increasing activity ([2]; 4 mg/kg): 10.2 ± 3.7 min
- Sleep time (min.) [Mean ± SD] ([4]; 4 mg/kg): 43.01 ± 19.22 min
- Sleep time (min.) [Mean ± SD] ([4]; 8 mg/kg): 46.83 ± 13.94 min
- Sleep time (min.) [Mean ± SD] ([4]; 16 mg/kg): 66.81 ± 14.32 min
- ED50 ([5]; po, 110 min): 2.31 mg/kg
